Assay results published in PubChem BioAssay AID2060489 (Molecular Pharmacology Branch, DTP, NCI, 2025).
Blank lines part the entries; values can stand above or below the compound they belong to.

Test system: 922993-354-T-J3-PDC complex spheroids, viability
Experiment: Anticancer human tumor 922993-354-T-J3-PDC patient-derived endometrial carcinoma cell line growth inhibition [GQUAD]
Conditions: for IC50: curve of first compound; for viability, T/C: stronger effect = lower value
In short: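 Multi-cell-type spheroids of tumor cells with HUVEC and mesenchymal stem cells, treated with drug combinations. Concentrations descend in half-log steps from near clinical Cmax, or from 10 microM where Cmax is unknown; viability read-out.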

[1] = second compound 0.0316 µM, first compound 0.0316 µM
[2] = second compound 0.0316 µM, first compound 0.1 µM
[3] = second compound 0.0316 µM, first compound 0.316 µM
[4] = second compound 0.0316 µM, first compound 1 µM
[5] = second compound 0.0316 µM, first compound 3.16 µM
[6] = second compound 0.0316 µM, first compound 10 µM
[7] = second compound 0.1 µM, first compound 0.0316 µM
[8] = second compound 0.1 µM, first compound 0.1 µM
[9] = second compound 0.1 µM, first compound 0.316 µM
[10] = second compound 0.1 µM, first compound 1 µM
[11] = second compound 0.1 µM, first compound 3.16 µM
[12] = second compound 0.1 µM, first compound 10 µM
[13] = second compound 0.316 µM, first compound 0.0316 µM
[14] = second compound 0.316 µM, first compound 0.1 µM
[15] = second compound 0.316 µM, first compound 0.316 µM
[16] = second compound 0.316 µM, first compound 1 µM
[17] = second compound 0.316 µM, first compound 3.16 µM
[18] = second compound 0.316 µM, first compound 10 µM
[19] = second compound 1 µM, first compound 0.0316 µM
[20] = second compound 1 µM, first compound 0.1 µM
[21] = second compound 1 µM, first compound 0.316 µM
[22] = second compound 1 µM, first compound 1 µM
[23] = second compound 1 µM, first compound 3.16 µM
[24] = second compound 1 µM, first compound 10 µM
[25] = second compound 3.16 µM, first compound 0.0316 µM
[26] = second compound 3.16 µM, first compound 0.1 µM
[27] = second compound 3.16 µM, first compound 0.316 µM
[28] = second compound 3.16 µM, first compound 1 µM
[29] = second compound 3.16 µM, first compound 3.16 µM
[30] = second compound 3.16 µM, first compound 10 µM
[31] = second compound 10 µM, first compound 0.0316 µM
[32] = second compound 10 µM, first compound 0.1 µM
[33] = second compound 10 µM, first compound 0.316 µM
[34] = second compound 10 µM, first compound 1 µM
[35] = second compound 10 µM, first compound 3.16 µM
[36] = second compound 10 µM, first compound 10 µM
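Note: spheroids exposed to compounds for seven days.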
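Throughout, for viability, T/C: 100% = DMSO vehicle control viability.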

Structure (SMILES): O=C(NO)c1cnc(N2CCN(S(=O)(=O)c3ccc4ccccc4c3)CC2)nc1 + Cc1[nH]c2ccc(F)cc2c1-c1nc2c3cccnc3c3ncccc3c2[nH]1
IC50 (second compound 0.0316 µM): 409 nM | IC50 (second compound 0.1 µM): 542 nM | IC50 (second compound 0.316 µM): 772 nM | IC50 (second compound 1 µM): 870 nM | IC50 (second compound 3.16 µM): 1120 nM | IC50 (second compound 10 µM): 921 nM | viability, T/C [1]: 116% | viability, T/C [2]: 89.1% | viability, T/C [3]: 52.9% | viability, T/C [4]: 34.6% | viability, T/C [5]: 3.09% | viability, T/C [6]: 0.42% | viability, T/C [7]: 114% | viability, T/C [8]: 89.5% | viability, T/C [9]: 65% | viability, T/C [10]: 38.6% | viability, T/C [11]: 3.39% | viability, T/C [12]: 0.48% | viability, T/C [13]: 93.2% | viability, T/C [14]: 95.9% | viability, T/C [15]: 72.2% | viability, T/C [16]: 46.6% | viability, T/C [17]: 4.7% | viability, T/C [18]: 0.61% | viability, T/C [19]: 84.2% | viability, T/C [20]: 90.3% | viability, T/C [21]: 68.7% | viability, T/C [22]: 51.2% | viability, T/C [23]: 6.64% | viability, T/C [24]: 0.62% | viability, T/C [25]: 75.7% | viability, T/C [26]: 86.5% | viability, T/C [27]: 91.1% | viability, T/C [28]: 51.4% | viability, T/C [29]: 15% | viability, T/C [30]: 0.64% | viability, T/C [31]: 82.8% | viability, T/C [32]: 101% | viability, T/C [33]: 74.7% | viability, T/C [34]: 48.2% | viability, T/C [35]: 14.7% | viability, T/C [36]: 0.76%

Structure (SMILES): CC1COCCN1c1cc(C2(O)CC3CCC(C2)O3)c2cnn(-c3ccn[nH]3)c2n1 (stereo not drawn) + Cc1[nH]c2ccc(F)cc2c1-c1nc2c3cccnc3c3ncccc3c2[nH]1
IC50 (second compound 0.0316 µM): 332 nM | IC50 (second compound 0.1 µM): 519 nM | IC50 (second compound 0.316 µM): 655 nM | IC50 (second compound 1 µM): 355 nM | IC50 (second compound 3.16 µM): 622 nM | IC50 (second compound 10 µM): 435 nM | viability, T/C [1]: 87.8% | viability, T/C [2]: 67.6% | viability, T/C [3]: 50.8% | viability, T/C [4]: 37.5% | viability, T/C [5]: 19.9% | viability, T/C [6]: 15.1% | viability, T/C [7]: 85.7% | viability, T/C [8]: 84.5% | viability, T/C [9]: 62.2% | viability, T/C [10]: 33.3% | viability, T/C [11]: 21.2% | viability, T/C [12]: 18.5% | viability, T/C [13]: 85.4% | viability, T/C [14]: 94.3% | viability, T/C [15]: 69.9% | viability, T/C [16]: 37.2% | viability, T/C [17]: 22% | viability, T/C [18]: 13.3% | viability, T/C [19]: 84.4% | viability, T/C [20]: 96.7% | viability, T/C [21]: 52.9% | viability, T/C [22]: 30.7% | viability, T/C [23]: 24.4% | viability, T/C [24]: 17.7% | viability, T/C [25]: 86.4% | viability, T/C [26]: 70.5% | viability, T/C [27]: 68.6% | viability, T/C [28]: 37.1% | viability, T/C [29]: 27.4% | viability, T/C [30]: 19.6% | viability, T/C [31]: 89.2% | viability, T/C [32]: 77.5% | viability, T/C [33]: 53.3% | viability, T/C [34]: 37.6% | viability, T/C [35]: 23.6% | viability, T/C [36]: 18.2%

IC50 (second compound 0.0316 µM): 7860 nM | IC50 (second compound 0.1 µM): 5470 nM | IC50 (second compound 0.316 µM): 172 nM | IC50 (second compound 1 µM): > 10000 nM | IC50 (second compound 3.16 µM): > 10000 nM | IC50 (second compound 10 µM): < 31.6 nM
Structure (SMILES): CC1COCCN1c1cc(C2(S(C)(=N)=O)CC2)nc(-c2ccnc3[nH]ccc23)n1 (stereo not drawn) + Cc1cnc(CNC(=O)c2c(=O)c3ccc(N4CCCN(C)CC4)nc3n3c2sc2ccccc23)cn1
viability, T/C [1]: 87.9% | viability, T/C [2]: 79.4% | viability, T/C [3]: 82.8% | viability, T/C [4]: 67.9% | viability, T/C [5]: 91.5% | viability, T/C [6]: 41.6% | viability, T/C [7]: 70.4% | viability, T/C [8]: 63.5% | viability, T/C [9]: 55.2% | viability, T/C [10]: 61% | viability, T/C [11]: 66% | viability, T/C [12]: 35.5% | viability, T/C [13]: 59.9% | viability, T/C [14]: 50.7% | viability, T/C [15]: 50.9% | viability, T/C [16]: 38.8% | viability, T/C [17]: 50.5% | viability, T/C [18]: 39.2% | viability, T/C [19]: 46.3% | viability, T/C [20]: 60.1% | viability, T/C [21]: 51.7% | viability, T/C [22]: 45.2% | viability, T/C [23]: 48.5% | viability, T/C [24]: 53.3% | viability, T/C [25]: 49.1% | viability, T/C [26]: 52.8% | viability, T/C [27]: 54.4% | viability, T/C [28]: 48% | viability, T/C [29]: 54.4% | viability, T/C [30]: 52.5% | viability, T/C [31]: 51.8% | viability, T/C [32]: 42.9% | viability, T/C [33]: 54% | viability, T/C [34]: 50.6% | viability, T/C [35]: 47.3% | viability, T/C [36]: 53.6%

Structure (SMILES): Cc1cccc(N(C)C(=O)C2C(O)CCN2c2nc(C)cc(C(F)(F)F)c2C#N)c1 (stereo not drawn) + CN(C)c1ccc(Nc2c3ccc(NC(=O)CCN4CCCC4)cc3nc3cc(NC(=O)CCN4CCCC4)ccc23)cc1
IC50 (second compound 0.0316 µM): > 10000 nM | IC50 (second compound 0.1 µM): > 10000 nM | IC50 (second compound 0.316 µM): > 10000 nM | IC50 (second compound 1 µM): > 10000 nM | IC50 (second compound 3.16 µM): > 10000 nM | IC50 (second compound 10 µM): > 10000 nM | viability, T/C [1]: 80.8% | viability, T/C [2]: 89.6% | viability, T/C [3]: 80.6% | viability, T/C [4]: 92.5% | viability, T/C [5]: 90.1% | viability, T/C [6]: 95.4% | viability, T/C [7]: 89.6% | viability, T/C [8]: 111% | viability, T/C [9]: 87.5% | viability, T/C [10]: 103% | viability, T/C [11]: 94.9% | viability, T/C [12]: 67.6% | viability, T/C [13]: 90.4% | viability, T/C [14]: 105% | viability, T/C [15]: 95.5% | viability, T/C [16]: 91.8% | viability, T/C [17]: 83.2% | viability, T/C [18]: 69.6% | viability, T/C [19]: 85.3% | viability, T/C [20]: 82.7% | viability, T/C [21]: 101% | viability, T/C [22]: 93.6% | viability, T/C [23]: 97.1% | viability, T/C [24]: 82.1% | viability, T/C [25]: 96.8% | viability, T/C [26]: 102% | viability, T/C [27]: 104% | viability, T/C [28]: 106% | viability, T/C [29]: 99.3% | viability, T/C [30]: 91.5% | viability, T/C [31]: 105% | viability, T/C [32]: 133% | viability, T/C [33]: 113% | viability, T/C [34]: 106% | viability, T/C [35]: 103% | viability, T/C [36]: 80.3%
